Common to all, as to format: cell-based
For one assay, the system named is MC3T3-E1 osteoblasts. As to the kind of experiment: [3H]-thymidine incorporation into DNA in wounded mineralized cell layers (in vitro fracture model). The protocol: (§1) Cell culture: Cloned MC3T3-E1 osteoblasts (Kodama et al., J. Cell. Physiol. 112:89-95, 1992) were maintained in alpha MEM medium (Catalog No. MT15012CV Fisher Scientific, Pittsburgh, Pa.) containing 10% fetal bovine serum (FBS), 1% antibiotic solution and 1% glutamine solution and subcultured every 3 to 4 days. The cells were subcultured by incubating with trypsin for five minutes and resuspending at a concentration of 3×10^5 cells/ml. For experiments, cells were grown in the same medium as above, using multiwell plates (35 mm for microscopy and 22 mm for thymidine uptake studies). Each well contained a round 12 mm glass cover slip. Cultures for microscopy contained a 22 mm diameter coverslip with a 12 mm coverslip on top. After three days, the cells reached confluence and differentiation medium (DM) was added. DM was alpha MEM medium containing 10% FBS, 1% antibiotic solution and 1% glutamine solution, supplemented with ascorbic acid (50 μg/ml) and β-glycerol phosphate (10 mM) to induce mineralization. The cultures were then incubated for 9 more days. Microscopic examination was done at this time, using Von Kossa stain to confirm mineralization of the cultures. A critical defect in the mineralized cell layers was created by removing the 12 mm coverslips under sterile conditions and then incubating the cultures for an additional 24 hours in DM containing 4% FBS with IGF-1 (20 ng/ml), FGF-2 (0.2 ng/ml), PDGF (3 ng/ml), TGFβ (2 ng/ml) or PGE2 (2 μg/ml). At least triplicate independent biological samples in multiple experiments were carried out for data collection.
Tritiated thymidine incorporation into DNA: At the conclusion of the 24 hour incubation, the culture medium was removed and the cells were incubated for 15 minutes at 37° C. in 1 ml PBS containing tritiated thymidine (4 μCi/ml). Following this incubation, the PBS was removed and the cells washed 3 times with ice cold trichloroacetic acid (TCA) followed by ice cold ethanol and allowed to air dry. Then 1 ml of sarkosyl lysis buffer ([…] containing 1% sarkosyl) was added to each well; all the cells were solubilized after 30 minutes. Finally, after mixing the resulting solution with a pipette, radioactivity was counted in a scintillation counter and protein content was measured. The data was calculated and expressed as disintegrations per minute per microgram protein.

The subject of another assay is MC3T3-E1 cell monolayers. The experiment in a line: Cell re-growth and migration into the coverslip defect, rhodamine phalloidin microscopy. As to the method: as §1, with “([…]).” for “(2 ng/ml) or PGE2 (2 μg/ml).”
Microscopy: At the conclusion of the 24 hour incubation, the remaining 22 mm coverslip containing the regenerating area of the culture was removed. The specimen was rinsed five times in room temperature phosphate buffered saline (PBS) and fixed. Cells were visualized with the F-actin probe rhodamine phalloidin (Invitrogen, Carlsbad, Calif.). After rinsing in distilled water and air drying the samples, the coverslips were mounted on microscope slides using FLUOROMOUNT™ and the cells were examined and photographed. Photomicrographs were made on a Zeiss Axioskop epi-fluorescent microscope using a 40× objective. Migration was measured on the photomicrographs from the site of the wound to the migrating edge using a metric ruler (n=3) for each measurement.

The next assay relates to MC3T3-E1 cells. As to the kind of experiment: Cell growth on pre-treated nylon ribbons. To be noted: up to 4 days, 0.1 mg/ml fibrinogen, HAHp, 50 ng/ml FGF-2. The protocol: Growth on Nylon Ribbons: 250,000 MC3T3-E1 osteoblast cells were seeded in 12-well plates containing 1 inch by 1 inch nylon ribbons pre-treated with 0.1 mg/ml fibrinogen or 1 mg/ml HA and 3 mg/ml heparin (HAHp) with or without 50 ng/ml FGF-2. Cells were visualized under 10× objective at 1 and 4 days after seeding.

Take fibroblast growth factor-2 [FGF-2]: the “increase of thymidine incorporation” value in the assay on MC3T3-E1 osteoblasts (wounded MC3T3-E1, 24 hour treatment, FGF-2 0.2 ng/ml, TGFβ 2 ng/ml, PGE2) is “more than 4.5 fold”. In addition, in the assay with MC3T3-E1 osteoblasts (wounded MC3T3-E1, within twenty-four hours of treatment), the “change in DNA synthesis (thymidine incorporation), in words” value is “significantly enhanced”. In the assay with MC3T3-E1 cell monolayers (24 hours after injury), the “re-growth of cells into the defect, in words” value is “showed cellular proliferation at the interface of the mature cultures and the defect”. Further, in the assay with MC3T3-E1 cell monolayers (FGF-2 0.2 ng/ml, PGE2 10 μg/ml), the “pattern of re-growth and cell morphology in the defect, in words” value is given as “rapid coverage of the defect void”. For the same substance, the relative migration with MC3T3-E1 cell monolayers (from wound site to migrating edge, 24 hours after injury) turned out to be 5.4±0.5 mm. Further, in the assay with MC3T3-E1 cells, the “cell growth on nylon ribbon, in words” value is “Little or no cell proliferation”.

The values above are taken from patent publication US20100055078A1, “METHODS OF MAKING A TRANSPLANTABLE BONE REPAIR SYSTEM USING MULTIPOTENT STEM CELLS” (The Government of the U.S.A, as represented by the …, priority 2008, published 2010).
